{"source": "patent US7271239B2", "about": "“D-isomers of antimicrobial peptide” (The Research Foundation of State University of New York, priority 2004, dated 2007)", "key": {"C. albicans strain DIS": {"system": "C. albicans strain DIS", "type": "in vivo, mice ICR strain", "description": "A previously described protocol was adopted (14). Mice were immunosuppressed with two subcutaneous injections of prednisolone at a dose of 100 mg/kg body weight 1 day prior to and 3 days after the infection with C. albicans. Tetracycline hydrochloride in drinking water at a concentration of 0.83 mg/ml was given to mice beginning 1 day before infection. Mice were anesthetized by intramuscular injection with 60 μl of 2 mg/ml chlorpromazine chloride, using a dose of 10 mg/kg body weight of mice. While under anesthesia, a small cotton ball soaked in 0.1 ml aliquot of C. albicans cell suspension (2.5×10^6 cells) was used to swab the entire oral cavity of the anesthetized mice.\nVisual evaluation was done by carefully extending the tongue of randomly picked mice using blunt-end forceps, while the mice were under isoflurane sedation. Presence of thick, white curd-like patches indicated candidal infection. At day 3 post-infection, all animals were examined for evidence oral candidal infection by microbiological evaluation. The entire oral cavity of anesthetized mice was swabbed using a sterile calcium alginate disposable swab (Fisher Scientific), dampened with sterile PBS. Cells were then released from the swab into 1 ml PBS. Serial 10-fold dilutions were plated on SDA plates supplemented with streptomycin (30 μg/ml). Plates were incubated for 24 h at 37° C. and yeast cell count expressed as log10 of cfu/ml.\nTongues from sacrificed animals were used for histological studies. They were fixed in 10% formalin and embedded in paraffin. Serial five-μm sections were cut from the paraffin block and stained with periodic acid-Schiff (PAS) reagent for detection of C. albicans.\nMice were randomly divided into various treatment groups with 8 mice per group. Antifungal agents were employed on an equimolar basis, and included amphotericin B (1.75%), clotrimazole (0.66%), MUC7 12-mer (RKSYKCLHKRCR—SEQ ID NO:1) (L; 3%), MUC7 12-mer (D; 3%), MUC7 12-mer (D; 3%) containing Na2EDTA (1 mM), MUC7 12-mer (L; 3%) containing protease inhibitor cocktail (PIC) (1%), and Hsn5 12-mer (AKRHHGYKRKFH—SEQ ID NO:2) (3%). They were all emulsified in Pluronic F127, (20% lipoil), a polymer of polyoxyethylene and polyoxypropylene (non-ionic surfactant). Animals were anesthetized using isoflurane; while sedated, about 30 to 40 μl of the antifungal emulsion was applied on the tongue and spread throughout oral cavity. The treated mice were under sedation for additional 5 min under isoflurane. Animals were not given access to food and water for 1 h following the application.\nFungal burden was re-evaluated quantitatively after 3 and 6 days of treatment, using the same technique as the one used for initial evaluation. Randomly picked mice from each group was subjected to histopathological evaluation, after 6 days of treatment. Blood from randomly sacrificed mice from each treatment group was analyzed for any changes in the serum liver (AST, ALT, ALP etc.) and kidney enzymes (BUN, glucose, creatinine etc) levels.\nStatistical analysis was performed using a significance level set at 0.05 (α) and a significant group size (n=8). Initial infection and antifungal treatment efficacy were determined using analysis of variance (ANOVA), expressed as log10 cfu, and Scheffe's multiple comparison test was used to determine the differences between various treatment groups."}, "C. albicans DIS": {"system": "C. albicans DIS", "assay": "Killing assay in whole human saliva", "details": "saliva, no peptide", "description": "FIG. 1. Candidacidal activity of MUC7 12-mer-L, MUC7 12-mer-D, Hsn5 12-mer, and Magainin-II in whole human saliva (WHS). Each peptide at final concentration of 25, 50, and 100 μM was incubated with C. albicans (DIS isolate at 1×10^5 cells/ml) and 20 μl of clarified or unclarified saliva (SL; hatched bars), saliva containing Protease inhibitor cocktail (PIC) (SL+PIC; filled bars), or saliva containing ethylenediamine tetraacetic acid (EDTA) (SL+EDTA; clear bars) at 37° C. for 1.5 h. At the end of incubation, the samples were diluted 20-fold and aliquots plated on SDA. The colony forming units (CFU) were counted after 24 h of incubation. The loss of C. albicans viability was determined by the equation (1−CFU of the test group/CFU of the control group)×100%. The data represent three individual trials, and in each trial the sample was duplicated; the error bars represent standard deviation.\nFIG. 4. […] Stimulated whole saliva was collected from 5 healthy subjects. Peptides (50 μM) were incubated with C. albicans cells (1×10^5) in the each individual saliva containing PIC (SL+PIC) at 37° C. for 1.5 hr and the loss of the cell viability was determined. Values represent the mean±S.D. (n=5).\nKilling assays in saliva. Unclarified saliva (unstimulated whole saliva) was collected from five healthy individuals during the fasting. Clarified saliva was obtained by passing the unclarified saliva through the 0.2 μm pore size sterile syringe filter (VWR scientific products, West Chester, Pa.). Candidacidal activity assays were performed as described previously (4), except the phosphate buffer was substituted with saliva. […] Saliva without peptides was a blank control. After incubation at 37° C. for 1.5 h, the reactions were diluted 20-fold in PB and aliquots (50 μl, ˜120 cells) of each sample were plated on SDA. The plates were incubated at 37° C. for 1 day aerobically and the number of colony-forming units (CFUs) was counted. Percentage of killing was calculated as (1−amount of viable cells in the test group)/(amount of viable cells in the control group)×100%."}, "[1]": {"details": "Experimental study I, topical oral application"}}, "data": [{"smiles": "Clc1ccccc1C(c1ccccc1)(c1ccccc1)n1ccnc1", "note": "[Clotrimazole, 1-[o-chloro-a,a-diphenylbenzyl]-imidazole]", "values": [{"measurement": "Log10 cfu/ml (Mean + S.D.), Initial infection", "setting": "C. albicans strain DIS; Experimental study I, day 3 post-infection, before treatment (baseline)", "value": "4.50 ± 0.20", "unit": "Log10 cfu/ml"}, {"measurement": "Log10 cfu/ml (Mean + S.D.), 3-days treatment", "setting": "C. albicans strain DIS; [1]", "value": "1.58 ± 1.36", "unit": "Log10 cfu/ml"}, {"measurement": "Log10 cfu/ml (Mean + S.D.), 6-days treatment", "setting": "C. albicans strain DIS; [1]", "value": "0.53 ± 0.99", "unit": "Log10 cfu/ml"}, {"measurement": "histopathological finding in tongue sections (C. albicans, PAS staining)", "setting": "C. albicans strain DIS; end of treatment", "value": "healthy tissue and absence of visible microorganisms"}]}, {"smiles": "O=C(O)CN(CCN(CC(=O)O)CC(=O)O)CC(=O)O", "note": "[EDTA, ethylenediamine tetraacetic acid]", "values": [{"measurement": "effect of additive alone on C. albicans cell viability", "setting": "C. albicans DIS", "value": "very little or no effect"}]}]}
